The values that follow come from US7053077B1, “Use of biogenic estrogen sulfamates for hormone replacement therapy” (Schering AG, priority 1998, dated 2006).

One data set relates to liver. To be noted: relative to anti-gonadotropic properties; cited from earlier work.
Data set [1] deals with bone. The following applies: postmenopausal women, very high oral dosages; cited from earlier work.
The conditions of data set [2]: women; cited from earlier work.
Data set [3] has as its system bone. To be noted: uniform active ingredient levels maintained in the blood; cited from earlier work.
Data set [4] can be described thus: Plasma estrogen levels after one-time oral administration in postmenopausal women. In kind it is in vivo. The source says:
A “pool” of estrone sulfate is produced in the blood by EV. From the latter is released estrone by hydrolysis, a small proportion of which is in turn metabolized into estradiol. […] Estrone sulfate is in this case only the main metabolite of the estrogens that are produced from the sulfamate.

The procedure of data set [5]: In the examples below, the determination of the plasma levels of the estrogens with validated methods that are known and acknowledged in the art was performed.
Data set [6] is described as follows: Blood levels of estradiol and estrone in ovariectomized rats after oral treatment. It counts as in vivo. The method, then: (§1) These release-processes were ended after 24 hours.
A further data set deals with ovariectomized rats. Put plainly: Oral estrogenic action in ovariectomized rats. It counts as in vivo. The procedure: as §1
Another data set concerns endometrium. The data set is described as follows: Growth effect on the endometrium after daily low-dose treatment. In kind it is in vivo, postmenopausal women. To be noted: daily 0.1 mg, at the end of treatment.

On to `C#C[C@]1(O)CC[C@H]2[C@@H]3CCc4cc(O)ccc4[C@H]3CC[C@@]21C` [EE, ethinylestradiol], for which the “estrogenic activity in the liver compared with orally administered natural estrogens” value with liver was 4–18 times.
Usually half-life stands for the time in which the quantity being followed falls by half. Turning to `C[C@]12CC[C@@H]3c4ccc(O)cc4CC[C@H]3[C@@H]1C[C@@H](O)[C@@H]2O` [estriol], the osteoprotective effect entry in the data set on bone [1] was “not osteoporectively effective”. Moreover, the half-life in data set [2] is 1.5 to 5.3 h. The “action in the bone after ovariectomy” value with bone [3] is reported as “protective action in the bone”.
Take estradiol sulfamate: the “estrone levels 24 hours after administration” value in data set [4] (one-time oral 2 mg, 24 hours, postmenopausal women) is on record as “higher after estradiol sulfamate than after EV”. Moreover, the “estrone sulfate levels 48 hours after administration” value in [4] (one-time oral 2 mg, 48 hours, postmenopausal women) is “higher after estradiol sulfamate than after EV”. Besides, the “estradiol blood levels one week after treatment” value in data set [4] (one-time oral 2 mg, one week, postmenopausal women) was “clearly exceed the starting values”. In addition, the “increase of estrone sulfate levels in plasma” value in data set [4] (one-time oral 2 mg, postmenopausal women (FIG. 1)) is listed as “increase”. Further, the “increase of estrone levels in plasma” value in data set [4] (one-time oral 2 mg, postmenopausal women (FIG. 2)) is “persists for a long time”. For the same compound, in data set [4] (oral use (FIG. 4)), the “level of estrogen sulfate in comparison to EV” value is “very low in comparison to EV”. Moreover, the “release (surface under the curve) of estrone” value in [4] (oral use, compared with EV (FIG. 4)) is “altogether higher release”. For the same compound, in [4] (three postmenopausal women, one-time 2 mg, over 600 hours (FIG. 5)), the “average estrone sulfate levels” value is “clear increase compared to the starting values”. In data set [4] (women, oral), the “estrone sulfate increase compared with transdermal therapy” value is “behave comparably”. The “induced estrone sulfate levels relative to estradiol valerate” value in data set [4] (women, oral, at comparable estrone and estradiol levels in the blood) was “about 10 times lower”. For the same compound, in data set [5] (daily 0.1 mg, after last of 14 administrations), the “persistence of estrone sulfate increase in plasma after the last administration” value was “had not yet disappeared even after six days”. In data set [5] (in vivo), the “estrone levels in the plasma” value is recorded as “Relevant elevated estrone levels”, the “estrone sulfate level at the end of the treatment” value is “clear increases” and the “estrone sulfate level in the first 24 hours after beginning of treatment” value was “no clear increases”. Further, in data set [6], the “blood levels of estradiol and estrone in comparison to estradiol in an equimolar dose” value is “higher and prolonged blood levels of estradiol and estrone”; the “end of release processes (estradiol, estrone)” value is at most 24 h. Also, the oral estrogenic action entry in the data set on ovariectomized rats (oral treatment) is given as “strong oral estrogenic action”. Also, in the data set on ovariectomized rats (very high dosages), the “extension of the estrogen actions” value is “did not result in an extension of the estrogen actions”. The “growth effect on the endometrium relative to the starting value” with endometrium is “considerable growth effect on the endometrium”.
